The numbers were not newly measured in patent US20090197952A1, “Glyceride Esters for the Treatment of Diseases Associated with Reduced Neuronal Metabolism of Glucose” (priority 2006, published 2009), which cites them from elsewhere.

The subject of one series is rat. Conditions: rat feeding studies.
A further series concerns mice. Conditions: direct administration.
In series [1] the test system is rats. Conditions: infusion.
The subject of series [2] is rats. The note with it: rat, in vivo.
Another series deals with patients. Conditions: infused at 8-9.3 g/Kg body weight/day to affect hyperketonemia.

Regarding `CC(O)CC(=O)OCC(O)CO` (racemic) [1-(DL-3-hydroxybutyryl)-glycerol], in the series with rat, the acute toxicity result is “not acutely toxic” and the chronic toxicity entry is recorded as “did not show any indication of chronic toxicity”.
As to `CC(O)CC(=O)OCC(COC(=O)CC(C)O)OC(=O)CC(C)O` (racemic) [DL-tris-(3-hydroxybutyrl)-glycerol], in the series on rat, the acute toxicity entry is reported as “not acutely toxic” and the chronic toxicity entry is listed as “did not show any indication of chronic toxicity”.
Take `CC(O)CC(=O)O` (stereo not drawn) [3-hydroxybutyrate]: in the series on mice, the protection against neurotoxin result is listed as “can protect mice against a neurotoxin”.
Turning to `CC(=O)CC(=O)OCC(O)CO` (stereo not drawn) [monoacetoacetin], in the series with rats [1] (elevated levels of ketone bodies achieved), the detrimental side effects entry is recorded as “without any detrimental side effects”. For the same compound, the “rate at which it could be safely infused” value in the series on rats [1] (level equivalent to 2/3 of the rat's daily caloric requirement) was “at least 50 g/kg body weight/day”.
As to `CC(=O)CC(=O)OCC(COC(=O)CC(C)=O)OC(=O)CC(C)=O` [triacetoacetin], the tolerated amount in the series on rats [2] was 10 g/Kg body weight/day.
bisacetoacetin: the detrimental side effects entry in the series on patients was “No detrimental side effects”.
